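Method: 48-hour compound exposure of cells in 96-well plates, five concentrations, linear interpolation of endpoints. Here, GI50 denotes the concentration required for 50% inhibition of growth.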 The source made the active and inactive calls. No stated cut-off is given here; in the data, active = GI50 up to about 1.1 µM and inactive = higher.
Columns and labels:
Experiment in all cases: inhibition of tumour cell growth, NCI panel, 48 h
786-0 = system: 786-0
A498 = system: A498
A549 = system: A549
ACHN = system: ACHN
CAKI-1 = system: CAKI-1
CCRF-CEM = system: CCRF-CEM
COLO 205 = system: COLO 205
DLD-1 = system: DLD-1
DMS-114 = system: DMS-114
DMS-273 = system: DMS-273
EKVX = system: EKVX
HCC 2998 = system: HCC 2998
HCT-116 = system: HCT-116
HCT-15 = system: HCT-15
HL-60 = system: HL-60
HOP-18 = system: HOP-18
HOP-62 = system: HOP-62
HOP-92 = system: HOP-92
HT-29 = system: HT-29
IGROV-1 = system: IGROV-1
K562 = system: K562
KM-20L2 = system: KM-20L2
KM12 = system: KM12
LOX IMVI = system: LOX IMVI
LXFL 529 = system: LXFL 529
M14 = system: M14
M19-MEL = system: M19-MEL
MOLT-4 = system: MOLT-4
Malme-3M = system: Malme-3M
NCI-H226 = system: NCI-H226
NCI-H23 = system: NCI-H23
NCI-H460 = system: NCI-H460
NCI-H522 = system: NCI-H522
OVCAR-3 = system: OVCAR-3
OVCAR-4 = system: OVCAR-4
OVCAR-5 = system: OVCAR-5
OVCAR-8 = system: OVCAR-8
RPMI-8226 = system: RPMI-8226
RXF 393 = system: RXF 393
SF-268 = system: SF-268
SF-295 = system: SF-295
SF-539 = system: SF-539
SK-MEL-28 = system: SK-MEL-28
SK-MEL-2 = system: SK-MEL-2
SK-MEL-5 = system: SK-MEL-5
SK-OV-3 = system: SK-OV-3
SN12C = system: SN12C
SNB-19 = system: SNB-19
SNB-75 = system: SNB-75
SNB-78 = system: SNB-78
SR = system: SR
SW-620 = system: SW-620
TK-10 = system: TK-10
U-251 = system: U-251
UACC-257 = system: UACC-257
UACC-62 = system: UACC-62
UO-31 = system: UO-31

Measured: GI50

CCCc1nc(NC#N)nc(C(=O)NC23CC4CC(CC(C4)C2)C3)c1C
inactive: 786-0 > 100 µM | A498 > 100 µM | A549 > 100 µM | ACHN > 100 µM | CAKI-1 > 100 µM | CCRF-CEM > 100 µM | COLO 205 > 100 µM | DLD-1 > 100 µM | DMS-114 > 100 µM | DMS-273 > 100 µM | EKVX > 100 µM | HCC 2998 > 100 µM | HCT-116 > 100 µM | HL-60 > 100 µM | HOP-18 > 100 µM | HOP-62 > 100 µM | HOP-92 > 100 µM | HT-29 > 100 µM | IGROV-1 > 100 µM | K562 > 100 µM | KM-20L2 > 100 µM | KM12 > 100 µM | LOX IMVI > 100 µM | LXFL 529 > 100 µM | M14 > 100 µM | M19-MEL > 100 µM | MOLT-4 > 100 µM | Malme-3M > 100 µM | NCI-H226 > 100 µM | NCI-H23 > 100 µM | NCI-H460 > 100 µM | NCI-H522 > 100 µM | OVCAR-3 > 100 µM | OVCAR-4 > 100 µM | OVCAR-5 > 100 µM | OVCAR-8 > 100 µM | RPMI-8226 > 100 µM | RXF 393 > 100 µM | SF-268 > 100 µM | SF-295 > 100 µM | SF-539 > 100 µM | SK-MEL-28 > 100 µM | SK-MEL-2 > 100 µM | SK-MEL-5 > 100 µM | SK-OV-3 > 100 µM | SN12C > 100 µM | SNB-19 > 100 µM | SNB-75 > 100 µM | SNB-78 > 100 µM | SR > 100 µM | SW-620 > 100 µM | TK-10 > 100 µM | U-251 > 100 µM | UACC-257 > 100 µM | UACC-62 > 100 µM | UO-31 > 100 µM
> 100 µM: HCT-15
